Source: patent US20240041889A1, “COMBINATION THERAPY WITH ADENOSINE RECEPTOR ANTAGONISTS” (Teon Therapeutics, Inc., priority 2020, published 2024)

Legend:
CT26 tumor = test: Combination with anti-PD-1 in a CT26 model; assay type: in vivo, Balb/C mice; conditions: intraperitoneally for 16 days
Description: Methods: Balb/C inbred female mice, aged at 8-9 week, were purchased from Charles River. On the day of inoculation (Day 0), CT26 cells were harvested, washed and counted. Cells were re-suspended as single cell solution in PBS at a concentration of 5×10^6 cells/mL at the final step. Immediately, five hundred thousand (5×10^5) of CT26 cells suspended in 0.1 mL PBS were injected in the right flank of Balb/C mice subcutaneously using 27G needles. When palpable, tumors were measured by a caliper and tumor volume (mm^3) were calculated by length×width×height×0.5236. Mice with the tumor size approximate to 100 mm^3 were randomly assigned into one of four groups (n=10). Each group received vehicle (BID), A2B antagonist Compound 1 at 3 mg/kg (BID), mouse anti-PD-1 (RMP1-14) at 5 mg/kg (Q2D), or Compound 1 (3 mg/kg)+RMP1-14 (5 mg/kg) intraperitoneally for 16 days. Tumor size and body weight were determined every 2-3 days.

B16F10 tumor = test: Combination with anti-PD-1 in a B16F10 model; assay type: in vivo, C57BL/6 mice; conditions: intraperitoneally for 7 days
Description: Methods: C57BL/6 inbred female mice, aged at 8-9 week, were purchased from Charles River. On the day of inoculation (Day 0), B16F10 cells were harvested, washed and counted. Cells were re-suspended as single cell solution in PBS at a concentration of 5×10^6 cells/mL at the final step. Immediately, five hundred thousand (5×10^5) of B16F10 cells suspended in 0.1 mL PBS were injected in the right flank of C57BL/6 mice subcutaneously using 27G needles. When palpable, tumors were measured by a caliper and tumor volumes (mm^3) were calculated by length×width×height×0.5236. Mice with the tumor size approximate to 100 mm^3 were randomly assigned into one of four groups (n=10). Each group received vehicle (BID), A2B antagonist Compound 1 at 1 mg/kg (BID), mouse anti-PD-1 (RMP1-14) at 10 mg/kg (Q3D), or Compound 1 (1 mg/kg)+RMP1-14 (10 mg/kg) intraperitoneally for 7 days. Tumor size and body weight were determined every 2-3 days.

[1] = test system: tumor-infiltrating immune cells; test: Mechanistic study in a MC38 model, FACS analysis of tumor tissue; assay type: in vivo, C57BL/6 mice; conditions: 6 days after drug treatment
Description: Methods: C57BL/6 inbred female mice, aged at 6-8 week, were purchased from Shanghai Lingchang Biotechnology Co., Ltd. On the day of inoculation (Day 0), MC38 cells were harvested, washed and counted. Cells were re-suspended as single cell solution in PBS at a concentration of 1×10^6 cells/mL at the final step. Immediately, […] (1×10^5) of MC38 cells suspended in 0.1 mL PBS were injected in the right flank of C57BL/6 mice subcutaneously using 27G needles. When palpable, tumors were measured by a caliper and tumor volume (mm^3) were calculated by length×width×height×0.5236. Mice with the tumor size approximately to 80-100 mm^3 were randomly assigned into one of four groups (n=8). Each group received vehicle (BID), A2B antagonist Compound 1 at 3 mg/kg (BID), mouse anti-PD-1 (RMP1-14) at 10 mg/kg (Q3D), or Compound 1 (3 mg/kg)+RMP1-14 (10 mg/kg) intraperitoneally. Tumor tissues were collected 6 days after drug treatment and made single cell suspension for FACS analysis to detect tumor-infiltrating immune cells.

MC38 tumor model = test: Fibrosis in a MC38 tumor model; assay type: in vivo

SMILES: CCCn1c(=O)c2[nH]c(-c3cnn(Cc4cccc(C(F)(F)F)c4)c3)nc2n(CC)c1=O [Compound 1, 8-(1-(3-(Trifluoromethyl)benzyl)-1H-pyrazol-4-yl)-3-ethyl-1-propyl-1H-purine-2,6(3H,7H)-dione]
- effect on mouse body weight (CT26 tumor; CT26 model): no significant effect
- maximal CT26 tumor growth inhibition (TGI) (CT26 tumor; Compound 1 3 mg/kg BID, RMP1-14 5 mg/kg Q2D, alone or combined): 47.5%
- effect on mouse body weight (B16F10 tumor; B16F10 model): no effect
- maximal B16F10 tumor growth inhibition (TGI) (B16F10 tumor; Compound 1 1 mg/kg BID, RMP1-14 10 mg/kg Q3D, alone or combined): 48.7%
- increase of the amount of dendritic cells (DCs) ([1]; Compound 1 3 mg/kg BID i.p.): 34%
- reduction of the amount of myeloid-derived suppressor cells (MDSCs) ([1]; Compound 1 3 mg/kg BID i.p.): 41%
- reduction of the amount of regulatory T cells (Tregs) ([1]; Compound 1 3 mg/kg BID i.p.): 28%
- increase of the amount of CD8+ T cells ([1]; Compound 1 3 mg/kg BID, RMP1-14 10 mg/kg Q3D, alone or combined, i.p.): 58%
- increase of the amount of CD4+ T cells ([1]; Compound 1 3 mg/kg BID, RMP1-14 10 mg/kg Q3D, i.p.): 84%
- fibrosis (MC38 tumor model): reduces fibrosis
